T1: EcL-TTD (L-tartrate dehydratase, L-TTDα + L-TTDβ) (Escherichia coli, UniProt P05847+P0AC35)
T1 sequence (P05847 1-303): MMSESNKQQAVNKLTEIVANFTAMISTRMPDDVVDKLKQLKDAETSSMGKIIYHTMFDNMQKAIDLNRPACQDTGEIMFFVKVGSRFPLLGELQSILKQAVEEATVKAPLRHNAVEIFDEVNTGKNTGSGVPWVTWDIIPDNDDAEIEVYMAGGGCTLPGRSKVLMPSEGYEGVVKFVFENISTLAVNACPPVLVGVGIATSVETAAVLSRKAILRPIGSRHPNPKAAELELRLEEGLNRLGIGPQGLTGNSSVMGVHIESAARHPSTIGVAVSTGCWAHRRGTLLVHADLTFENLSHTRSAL
T1 sequence (P0AC35 1-201): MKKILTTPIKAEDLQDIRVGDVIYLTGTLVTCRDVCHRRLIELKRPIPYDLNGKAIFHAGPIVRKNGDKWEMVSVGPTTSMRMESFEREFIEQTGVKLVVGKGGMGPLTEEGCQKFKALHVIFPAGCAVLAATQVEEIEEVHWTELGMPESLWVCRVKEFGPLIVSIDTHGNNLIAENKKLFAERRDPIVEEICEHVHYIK

T2: MjFH (class-I fumarate hydratase, α + β subunits) (Methanocaldococcus jannaschii, UniProt Q58034+Q58690)
T2 sequence (Q58690 1-285): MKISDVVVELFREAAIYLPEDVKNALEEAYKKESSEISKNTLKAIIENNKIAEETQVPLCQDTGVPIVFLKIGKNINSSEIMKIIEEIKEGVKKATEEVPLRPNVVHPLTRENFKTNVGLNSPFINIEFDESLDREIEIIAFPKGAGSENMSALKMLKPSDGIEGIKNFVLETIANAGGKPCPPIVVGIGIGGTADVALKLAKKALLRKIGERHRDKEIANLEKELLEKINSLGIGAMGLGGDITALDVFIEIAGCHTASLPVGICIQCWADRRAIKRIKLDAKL
T2 sequence (Q58034 1-195): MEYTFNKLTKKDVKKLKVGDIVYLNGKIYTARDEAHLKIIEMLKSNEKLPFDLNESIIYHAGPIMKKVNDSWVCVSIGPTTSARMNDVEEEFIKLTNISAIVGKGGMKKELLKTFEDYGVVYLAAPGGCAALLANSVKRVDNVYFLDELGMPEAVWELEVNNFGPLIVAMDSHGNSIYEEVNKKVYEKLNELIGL


Columns and labels:
[1] = biological target: T1, EcL-TTD (L-tartrate dehydratase, L-TTDα + L-TTDβ); experiment: coupled malate dehydrogenase/NADH assay at […] nm, inhibition kinetics; format: biochemical
[2] = biological target: T2, MjFH (class-I fumarate hydratase, α + β subunits); experiment: fumarate formation at […] nm, inhibition kinetics; format: biochemical
purified protein = substrate: O=C(O)C(O)C(O)C(=O)O; experiment: purified protein; format: biochemical, Escherichia coli; conditions: 50 mM Tris-HCl pH 7.4, 37 °C, 250 μM NADH, Fe-S reconstituted

Ki [1] | Ki [2] | Molecule | Km (purified protein)
261 ± 29 µM |  | O=C(O)C[C@H](O)C(=O)O [S-malate] | 
149 ± 14 µM | 161 ± 17 µM | O=C(O)C(O)C(O)C(=O)O (stereo not drawn) [meso-tartrate] | 
 |  | EcL-TTD (L-tartrate dehydratase, L-TTDα + L-TTDβ) (Escherichia coli K-12) (protein) chain 1: MMSESNKQQAVNKLTEIVANFTAMISTRMPDDVVDKLKQLKDAETSSMGKIIYHTMFDNMQKAIDLNRPACQDTGEIMFFVKVGSRFPLLGELQSILKQAVEEATVKAPLRHNAVEIFDEVNTGKNTGSGVPWVTWDIIPDNDDAEIEVYMAGGGCTLPGRSKVLMPSEGYEGVVKFVFENISTLAVNACPPVLVGVGIATSVETAAVLSRKAILRPIGSRHPNPKAAELELRLEEGLNRLGIGPQGLTGNSSVMGVHIESAARHPSTIGVAVSTGCWAHRRGTLLVHADLTFENLSHTRSAL chain 2: MKKILTTPIKAEDLQDIRVGDVIYLTGTLVTCRDVCHRRLIELKRPIPYDLNGKAIFHAGPIVRKNGDKWEMVSVGPTTSMRMESFEREFIEQTGVKLVVGKGGMGPLTEEGCQKFKALHVIFPAGCAVLAATQVEEIEEVHWTELGMPESLWVCRVKEFGPLIVSIDTHGNNLIAENKKLFAERRDPIVEEICEHVHYIK | 190 ± 30 µM

From paper doi:10.1101/2023.06.17.545066v1 (biorxiv, 2023)
